Tests used:
Assay in all cases: relative viability (nuclei count vs DMSO), 5 days (fraction); higher = more cells survive
Gemcitabine = compound: Nc1ccn([C@@H]2O[C@H](CO)[C@@H](O)C2(F)F)c(=O)n1 [Gemcitabine]
Procedure, shortened: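 Nuclei counted with MetaXpress define viability as the ratio of treated to vehicle wells, given as a median across plates. The lung cancer cell lines were in 1536-well plates, pinned with five √10-spaced library-drug doses and imaged at 4× after 5 days and Hoechst staining. Plates passed with control CV below 25% and at least one doubling.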

Gemcitabine + Trametinib = compound: Nc1ccn([C@@H]2O[C@H](CO)[C@@H](O)C2(F)F)c(=O)n1 [Gemcitabine] + CC(=O)Nc1cccc(-n2c(=O)n(C3CC3)c(=O)c3c(Nc4ccc(I)cc4F)n(C)c(=O)c(C)c32)c1 [Trametinib] (partner 0.02 µM)
Procedure, shortened: (§1)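 Relative viability divides the nuclei count in treated wells by that in vehicle wells. Lung cancer cell lines were seeded in 1536-well plates, dosed by pin tool the next day, and fixed and stained after 5 days in one step with final 0.05% Triton X-100, 1% formaldehyde and 1 ug/ml Hoechst. Dosing was a single drug or a fixed anchor-drug dose plus five library-drug doses (not always all listed) in √10 steps, and values are medians of duplicate plates imaged at 4×.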

Gemcitabine + Phenformin = compound: Nc1ccn([C@@H]2O[C@H](CO)[C@@H](O)C2(F)F)c(=O)n1 [Gemcitabine] + N=C(N)NC(=N)NCCc1ccccc1 [Phenformin] (partner 250 µM)
Procedure, shortened: as §1

Gemcitabine + Olaparib = compound: Nc1ccn([C@@H]2O[C@H](CO)[C@@H](O)C2(F)F)c(=O)n1 [Gemcitabine] + O=C(c1cc(Cc2n[nH]c(=O)c3ccccc23)ccc1F)N1CCN(C(=O)C2CC2)CC1 [Olaparib] (partner 8 µM)
Procedure, shortened: as §1

Cell Line	relative viability (Gemcitabine; 0.001 µM)	relative viability (Gemcitabine; 0.003162 µM)	relative viability (Gemcitabine; 0.01 µM)	relative viability (Gemcitabine; 0.03162 µM)	relative viability (Gemcitabine; 0.1 µM)	relative viability (Gemcitabine + Trametinib; first compound 0.001 µM)	relative viability (Gemcitabine + Trametinib; first compound 0.003162 µM)	relative viability (Gemcitabine + Trametinib; first compound 0.01 µM)	relative viability (Gemcitabine + Trametinib; first compound 0.03162 µM)	relative viability (Gemcitabine + Trametinib; first compound 0.1 µM)	relative viability (Gemcitabine + Phenformin; first compound 0.001 µM)	relative viability (Gemcitabine + Phenformin; first compound 0.003162 µM)	relative viability (Gemcitabine + Phenformin; first compound 0.01 µM)	relative viability (Gemcitabine + Phenformin; first compound 0.03162 µM)	relative viability (Gemcitabine + Phenformin; first compound 0.1 µM)	relative viability (Gemcitabine + Olaparib; first compound 0.001 µM)	relative viability (Gemcitabine + Olaparib; first compound 0.003162 µM)	relative viability (Gemcitabine + Olaparib; first compound 0.01 µM)	relative viability (Gemcitabine + Olaparib; first compound 0.03162 µM)	relative viability (Gemcitabine + Olaparib; first compound 0.1 µM)
HCC-827	1.05	0.928	0.783	0.51	0.252	0.537	0.247	0.316	0.184	0.156	0.448	0.248	0.281	0.197	0.154	0.673	0.434	0.384	0.0193	0.162
ChaGo-K-1	1.07	0.871	0.538	0.265	0.219	0.897	0.757	0.461	0.189	0.155	0.444	0.378	0.204	0.17	0.159	0.471	0.452	0.22	0.182	0.146
NCI-H2228	0.973	0.695	0.235	0.161	0.132	0.587	0.248	0.156	0.0861	0.111	0.304	0.168	0.126	0.111	0.0895	0.627	0.333	0.152	0.144	0.0825
NCI-H2170	0.99	0.999	0.86	0.498	0.158	1.02	0.907	0.785	0.167	0.109	0.426	0.424	0.363	0.196	0.144	0.591	0.636	0.258	0.091	0.104
EMC-BAC-2	0.89	0.996	0.642	0.267	0.226	0.938	0.941	0.524	0.284	0.273	0.566	0.525	0.425	0.205	0.204	0.534	0.578	0.316	0.181	0.201
NCI-H2342	0.922	0.972	0.777	0.438	0.305	0.862	0.904	0.561	0.545	0.311	0.477	0.426	0.539	0.281	0.315	0.457	0.401	0.277	0.244	0.259
NCI-H23	0.898	0.299	0.144	0.146	0.139	0.277	0.179	0.121	0.12	0.1	0.71	0.491	0.144	0.136	0.135	0.293	0.132	0.0825	0.109	0.0995
RERF-LC-KJ	1.01	1	0.973	0.496	0.247	0.893	0.827	0.845	0.386	0.24	0.454	0.455	0.404	0.285	0.26	1	0.87	0.804	0.389	0.293
NCI-H358	0.972	0.415	0.179	0.154	0.157	0.11	0.107	0.0776	0.0818	0.0722	0.291	0.22	0.101	0.0745	0.0748	0.689	0.321	0.146	0.101	0.0993
LC-2-ad	1.03	0.763	0.762	0.316	0.159	0.926	1.01	0.845	0.645	0.236	0.569	0.347	0.339	0.212	0.161	0.805	0.791	0.65	0.482	0.224
HCC-15	1.04	1.06	0.941	0.468	0.108	0.369	0.383	0.363	0.196	0.0914	0.47	0.492	0.331	0.144	0.0968	0.831	0.73	0.625	0.175	0.103
NCI-H2405	0.995	0.66	0.533	0.268	0.211	0.689	0.67	0.457	0.211	0.211	0.405	0.26	0.247	0.192	0.173	0.842	0.766	0.361	0.23	0.179
LXF-289	1.01	0.977	0.826	0.206	0.123	0.644	0.683	0.611	0.205	0.147	0.517	0.445	0.263	0.0911	0.0812	1.07	0.935	0.303	0.0848	0.0776
CAL-12T	1.04	0.935	0.643	0.206	0.14	0.234	0.356	0.323	0.223	0.193	0.587	0.335	0.437	0.226	0.122	0.714	0.641	0.551	0.228	0.201
COR-L23	0.992	0.941	0.701	0.117	0.0953	0.584	0.656	0.248	0.116	0.099	0.432	0.368	0.193	0.1	0.0829	0.35	0.31	0.141	0.0915	0.0858
NCI-H1755	0.97	1	0.943	0.633	0.305	0.759	0.749	0.736	0.616	0.328	0.582	0.651	0.482	0.4	0.336	0.872	0.887	0.787	0.425	0.278
